Reference: US20170087106A1, “Method for supporting gut health” (priority 2015, published 2017)
Marks after values point to notes of the source that are not given here.

Columns and labels:
[1] = tested on: experimental model of irritable bowel syndrome (IBS) in rats induced by deoxycholic acid (DCA); assay: DCA-induced IBS in rats: abdominal withdrawal reflex to colorectal distension (CRD); type: in vivo, rat; details: oral daily, mean ± SEM
Experimental: (§1) Male Sprague Dawley rats (240-320 g) were administered DCA once daily on 3 consecutive days, and then divided into the different experimental groups (n=8): three received orally and daily CPM (40 and 100 mg/kg) or Gabapentin (70 mg/kg); a non IBS and an untreated control IBS group were also included. One and two weeks after, abdominal withdrawal reflex to colorectal distension (CRD) was semi quantitatively scored. Also the referred pain was evaluated with Von Frey filaments. After two weeks of treatment, all rats were sacrificed and the expression of different markers IL-1β and COX-2 evaluated in the colonic tissue by qPCR.

[2] = tested on: experimental model of irritable bowel syndrome (IBS) in rats induced by deoxycholic acid (DCA); assay: DCA-induced IBS in rats: referred pain with Von Frey filaments (AUC); type: in vivo, rat; details: for referred pain (in words): Von Frey filaments; for AUC: oral daily, mean ± SEM
Experimental: as §1

IL-1β [3] = assay: DCA-induced IBS in rats: colonic IL-1β expression by qPCR; type: in vivo, rat; details: colonic tissue, two weeks oral daily, mean ± SEM
Experimental: as §1

COX-2 = assay: DCA-induced IBS in rats: colonic COX-2 expression by qPCR; type: in vivo, rat; details: colonic tissue, two weeks oral daily, mean ± SEM
Experimental: as §1

IL-17 = assay: TNBS rat colitis: colonic IL-17 mRNA by real-time PCR; type: in vivo; details: colon, oral daily 7 days, mean ± SEM
Experimental: (§2) Female Wistar rats (180-200 g) were randomly assigned to nine groups (n=10). Three groups received treatment with CaPyr (20, 40 and 100 mg/kg); other three received treatment with ethyl pyruvate (20, 40 and 100 mg/kg); and the remaining was treated with sulphasalazine (30 mg/kg). All compounds were dissolved in 1 ml of carboxymethylcellulose (0.2%) in water solution, and administered daily by oral gavage. An untreated TNBS control group and a non-colitic group were included for reference, which received the vehicle used to administer the test compounds. Colonic inflammation was induced in control and treated groups as generally described (see Galvez et al. 2014). Briefly, rats were fasted overnight, anesthetized with halothane and given TNBS dissolved in 0.25 ml of 50% ethanol (v/v) by means of a Teflon cannula inserted 8 cm through the anus. During and after TNBS administration, the rats were kept in a head-down position until they recovered from anaesthesia, and then returned to their cages. Rats from the non-colitic group were administered intracolonically 0.25 ml of phosphate buffered saline instead of TNBS. The treatments were given from the day of the colitis induction until the sacrifice of the rats with an overdose of halothane, seven days later. Animal body weights, occurrence of diarrhoea, and water and food intake were recorded daily throughout all the experiments. Once the animals were sacrificed, the colon was removed aseptically and placed on an ice-cold plate, longitudinally opened and cleaned from their luminal contents with cold saline. Afterwards, it was weighed and its length measured under a constant load (2 g). Each colon was scored for macroscopically visible damage on a 0-10 scale by two observers unaware of the experiment, according to the criteria described before (see Galvez et al. 2014). Colon samples (0.5 cm^2) containing all the layers were taken from a region of the inflamed colon corresponding to the adjacent segment to the gross macroscopic damage and were fixed in 4% buffered formaldehyde for the histological studies. Equivalent colonic segments were also obtained from the non-colitic group. The colon was subsequently minced, aliquoted and kept frozen at −80° C. until biochemical determinations and RNA extraction was performed.
(§3) Analysis of gene expression in colonic samples by RT-qPCR Total RNA from colonic samples was isolated using Trizol® (Thermo Fisher Scientific Inc., Waltham, Mass. USA) following the manufacturer's protocol. All RNA samples were quantified with the Thermo Scientific NanoDrop™ 2000 Spectrophotometer (Thermo Fisher Scientific Inc., Waltham, Mass. USA) and […] of RNA were reverse transcribed using oligo(dT) primers (Promega, Southampton, UK).
(§4) Real time quantitative PCR amplification and detection was performed on optical-grade 48 well plates in an Eco™ Real-Time PCR System (Illumina, CA, USA) with 20 ng of cDNA, the KAPA SYBR® FAST qPCR Master Mix (Illumina, CA, USA) and specific primers at their annealing temperature (Ta). To normalize mRNA expression, the expression of the housekeeping gene, glyceraldehyde-3-phosphate dehydrogenase (GAPDH) was measured. The mRNA relative quantitation was calculated using the ΔΔCt method.

TFF-3 = assay: TNBS rat colitis: colonic TFF-3 mRNA by real-time PCR; type: in vivo; details: colon, oral daily 7 days, mean ± SEM
Experimental: as §2, §3, §4

[4] = tested on: TNBS experimental rat colitis; assay: TNBS rat colitis: colonic macroscopic damage score and weight/length ratio; type: in vivo; details: for Damage Score (0-10) / Weight/length: TNBS rat colitis, oral daily 7 days, mean ± SEM; for Weight/length: colon
Experimental: as §2

IL-1β [5] = assay: TNBS rat colitis: colonic IL-1β by ELISA; type: in vivo; details: colonic tissue, oral daily 7 days, mean ± SEM
Experimental: as §2
(§5) Myeloperoxidase (MPO) activity was measured according to the technique described previously (Krawiszet al., 1984); the results were expressed as MPO units per gram of wet tissue; one unit of MPO activity was defined as that degrading 1 μmol hydrogen peroxide/min at 25° C. Total glutathione (GSH) content was quantified with the recycling assay described by Anderson (1985), and the results were expressed as nmol/g wet tissue. In order to evaluate tissue IL-1β levels, the colonic samples were homogenized in phosphate buffered saline supplemented with 0.1% sodium dodecyl sulfate (SDS), 0.1% sodium deoxycholate, 1% Triton X-100 and protease and phosphatase inhibitors (aprotinin, leupeptin and phenylmethylsulfonyl fluoride). The cytokine was quantified by enzyme-linked immunoabsorbent assay (R&D Systems Inc., Minneapolis, Minn., USA) and the results were expressed as pg/g wet tissue.

IL-12 = assay: TNBS rat colitis: colonic IL-12 mRNA by real-time PCR; type: in vivo; details: colon, oral daily 7 days, mean ± SEM
Experimental: as §2, §3, §4

IL-23 = assay: TNBS rat colitis: colonic IL-23 mRNA by real-time PCR; type: in vivo; details: colon, oral daily 7 days, mean ± SEM
Experimental: as §2, §3, §4

glutathione (GSH) = assay: TNBS rat colitis: colonic total glutathione (GSH) content; type: in vivo; details: colonic tissue, oral daily 7 days, mean ± SEM
Experimental: as §2, §5

MUC-2 = assay: TNBS rat colitis: colonic MUC-2 mRNA by real-time PCR; type: in vivo; details: colon, oral daily 7 days, mean ± SEM
Experimental: as §2, §3, §4

[6] = tested on: TNBS experimental rat colitis; assay: TNBS rat colitis: microscopic (histological) damage score; type: in vivo; details: oral daily 7 days, mean ± SEM
Experimental: as §2
Cross-sections were selected and embedded in paraffin. Full-thickness sections of 5 μm were obtained at different levels and stained with haematoxylin and eosin. The histological damage was evaluated by a pathologist observer, who was blinded to the experimental groups, according to the criteria previously described by Galvez.

CINC-1 = assay: TNBS rat colitis: colonic CINC-1 mRNA by real-time PCR; type: in vivo; details: colon, oral daily 7 days, mean ± SEM
Experimental: as §2, §3, §4

IL-1β [7] = assay: TNBS rat colitis: colonic IL-1β mRNA by real-time PCR; type: in vivo; details: colon, oral daily 7 days, mean ± SEM
Experimental: as §2, §3, §4

MCP-1 = assay: TNBS rat colitis: colonic MCP-1 mRNA by real-time PCR; type: in vivo; details: colon, oral daily 7 days, mean ± SEM
Experimental: as §2, §3, §4

iNOS = assay: TNBS rat colitis: colonic iNOS mRNA by real-time PCR; type: in vivo; details: colon, oral daily 7 days, mean ± SEM
Experimental: as §2, §3, §4

myeloperoxidase (MPO) = assay: TNBS rat colitis: colonic myeloperoxidase (MPO) activity; type: in vivo; details: colonic tissue, oral daily 7 days, mean ± SEM
Experimental: as §2, §5

ICAM-1 = assay: TNBS rat colitis: colonic ICAM-1 mRNA by real-time PCR; type: in vivo; details: colon, oral daily 7 days, mean ± SEM
Experimental: as §2, §3, §4

IL-6 = assay: TNBS rat colitis: colonic IL-6 mRNA by real-time PCR; type: in vivo; details: colon, oral daily 7 days, mean ± SEM
Experimental: as §2, §3, §4

Molecule: NCC1(CC(=O)O)CCCCC1 [Gabapentin]
- CRD ([1]; 30 mg/kg (table)): 0.25 ± 0.1^a units
- referred pain (in words) [2]: attenuated
- AUC ([2]; 30 mg/kg (table)): 27.30 ± 6.83^a arbitrary units
- qPCR IL-1β (IL-1β [3]; 30 mg/kg (table)): 8.28 ± 1.38^c fold increase
- qPCR COX-2 (COX-2; 30 mg/kg (table)): 1.74 ± 0.36^c fold increase

Molecule: calcium pyruvate [CaPyr]
- IL-17 mRNA expression (IL-17; 20 mg/kg): 0.84 ± 0.09 fold increase
- IL-17 mRNA expression (IL-17; 40 mg/kg): 0.63 ± 0.27 fold increase
- IL-17 mRNA expression (IL-17; 100 mg/kg): 1.83 ± 0.48 fold increase
- TFF-3 mRNA expression (TFF-3; 20 mg/kg): 0.84 ± 0.23 fold increase
- TFF-3 mRNA expression (TFF-3; 40 mg/kg): 0.67 ± 0.17 fold increase
- TFF-3 mRNA expression (TFF-3; 100 mg/kg): 0.99 ± 0.19 fold increase
- Damage Score (0-10) ([4]; 20 mg/kg): 7.1 ± 0.4
- Damage Score (0-10) ([4]; 40 mg/kg): 5.7 ± 0.4
- Damage Score (0-10) ([4]; 100 mg/kg): 6.6 ± 0.6
- Weight/length ([4]; 20 mg/kg): 186.0 ± 22.8 mg/cm
- Weight/length ([4]; 40 mg/kg): 184.6 ± 25.1 mg/cm
- Weight/length ([4]; 100 mg/kg): 198.9 ± 15.0 mg/cm
- effect in TNBS-induced colitis (in words) ([4]; rats, 20, 40 and 100 mg/kg body weight, 7 days oral treatment): intestinal anti-inflammatory effects
- efficacy in TNBS colitis compared with the other treatments (in words) ([4]; rats, 7 days oral treatment): more effective than ethyl pyruvate and even better than the therapeutic drug Sulphasalazine
- IL-1β (ELISA) (IL-1β [5]; 20 mg/kg): 1095.0 ± 165.0 ng/g tissue
- IL-1β (ELISA) (IL-1β [5]; 40 mg/kg): 765.0 ± 60.0 ng/g tissue
- IL-1β (ELISA) (IL-1β [5]; 100 mg/kg): 810.1 ± 120.0 ng/g tissue
- IL-12 mRNA expression (IL-12; 20 mg/kg): 1.09 ± 0.13 fold increase
- IL-12 mRNA expression (IL-12; 40 mg/kg): 0.66 ± 0.18 fold increase
- IL-12 mRNA expression (IL-12; 100 mg/kg): 1.62 ± 0.30 fold increase
- IL-23 mRNA expression (IL-23; 20 mg/kg): 1.47 ± 0.24 fold increase
- IL-23 mRNA expression (IL-23; 40 mg/kg): 1.02 ± 0.21 fold increase
- IL-23 mRNA expression (IL-23; 100 mg/kg): 1.98 ± 0.30 fold increase
- GSH (glutathione (GSH); 20 mg/kg): 389 ± 55 nmol/g tissue
- GSH (glutathione (GSH); 40 mg/kg): 675 ± 67 nmol/g tissue
- GSH (glutathione (GSH); 100 mg/kg): 768 ± 100 nmol/g tissue
- MUC-2 mRNA expression (MUC-2; 20 mg/kg): 0.50 ± 0.14 fold increase
- MUC-2 mRNA expression (MUC-2; 40 mg/kg): 0.53 ± 0.16 fold increase
- MUC-2 mRNA expression (MUC-2; 100 mg/kg): 0.56 ± 0.11 fold increase
- Microscopic Damage Score (0-59) ([6]; 20 mg/kg): 27 ± 2
- Microscopic Damage Score (0-59) ([6]; 40 mg/kg): 18 ± 5
- Microscopic Damage Score (0-59) ([6]; 100 mg/kg): 13 ± 2
- CINC-1 mRNA expression (CINC-1; 20 mg/kg): 3.59 ± 0.49 fold increase
- CINC-1 mRNA expression (CINC-1; 40 mg/kg): 2.93 ± 0.57 fold increase
- CINC-1 mRNA expression (CINC-1; 100 mg/kg): 3.50 ± 0.90 fold increase
- IL-1β mRNA expression (IL-1β [7]; 20 mg/kg): 3.90 ± 0.61 fold increase
- IL-1β mRNA expression (IL-1β [7]; 40 mg/kg): 2.40 ± 0.61 fold increase
- IL-1β mRNA expression (IL-1β [7]; 100 mg/kg): 4.80 ± 0.90 fold increase
- MCP-1 mRNA expression (MCP-1; 20 mg/kg): 3.03 ± 0.49 fold increase
- MCP-1 mRNA expression (MCP-1; 40 mg/kg): 1.80 ± 0.37 fold increase
- MCP-1 mRNA expression (MCP-1; 100 mg/kg): 2.13 ± 0.41 fold increase
- iNOS mRNA expression (iNOS; 20 mg/kg): 10.37 ± 1.83 fold increase
- iNOS mRNA expression (iNOS; 40 mg/kg): 8.85 ± 3.36 fold increase
- iNOS mRNA expression (iNOS; 100 mg/kg): 9.15 ± 1.53 fold increase
- MPO (myeloperoxidase (MPO); 20 mg/kg): 48.2 ± 7.2 mU/g tissue
- MPO (myeloperoxidase (MPO); 40 mg/kg): 48.8 ± 8.2 mU/g tissue
- MPO (myeloperoxidase (MPO); 100 mg/kg): 57.7 ± 11.5 mU/g tissue
- ICAM-1 mRNA expression (ICAM-1; 20 mg/kg): 1.64 ± 0.25 fold increase
- ICAM-1 mRNA expression (ICAM-1; 40 mg/kg): 0.95 ± 0.19 fold increase
- ICAM-1 mRNA expression (ICAM-1; 100 mg/kg): 2.77 ± 0.44 fold increase
- IL-6 mRNA expression (IL-6; 20 mg/kg): 5.41 ± 1.01 fold increase
- IL-6 mRNA expression (IL-6; 40 mg/kg): 3.20 ± 1.20 fold increase
- IL-6 mRNA expression (IL-6; 100 mg/kg): 4.61 ± 1.01 fold increase

Molecule: calcium pyruvate monohydrate [CPM]
- CRD ([1]; 40 mg/kg): 1.30 ± 0.14^c units
- CRD ([1]; 100 mg/kg): 0.70 ± 0.14^a,c units
- referred pain (in words) [2]: attenuated
- AUC ([2]; 40 mg/kg): 104.65 ± 20.48^a arbitrary units
- AUC ([2]; 100 mg/kg): 63.70 ± 22.75^a arbitrary units
- qPCR IL-1β (IL-1β [3]; 40 mg/kg): 7.82 ± 2.07^c fold increase
- qPCR IL-1β (IL-1β [3]; 100 mg/kg): 5.52 ± 1.15^c fold increase
- qPCR COX-2 (COX-2; 40 mg/kg): 2.47 ± 0.58^c fold increase
- qPCR COX-2 (COX-2; 100 mg/kg): 1.60 ± 0.36^c fold increase
